Tests used:
Format in all cases: cell-based, human
[1] = tested on: 3 ESCC cell lines; test: Microarray screen, pooled over the 3 ESCC cell lines
Procedure: (§1) Cells were split to low density (5×10^5 per T-25 flask) 12 to 24 hr before treatment, then treated for 3, 4, or 5 days with 1 μM or 5 μM 5Aza-dC (Sigma) from 100-mM 50% acetic acid dissolved stock or were mock-treated with the same volume of phosphate buffered saline (PBS) including the same acetic acid. Following an initial incubation (48 hr) of 5Aza-dC, a final concentration of 300 nM TSA (Sigma) was added to the media from a 5 mM ethanol dissolved stock, or cells were mock-treated with an identical volume of ethanol.
(§2) Oligonucleotide microarray analysis was performed using the GeneChip™ Human Genome U95Av2 Array (Affymetrix), which contains 12,599 genes, according to the manufacturer's instruction. […] RNA was isolated using TRIZOL reagent (Invitrogen Corp.) and reverse-transcribed total RNA (8 μg) with M-MLV (Invitrogen Corp.); one one-hundredth of the cDNA product was used as a template for PCR. RT-PCR was performed at 24 to 30 cycles: 95° C. for 1 min, 54 or 56° C. for 1 min, and 72° C. for 1 min.
Treatment of cells with the demethylating agent 5aza-dC (1 μM or 5 μM) for 3 to 5 days, and with or without the histone deacetylase inhibitor, TSA (300 nM; last 24 hours), was used to reactivate genes epigenetically silenced in 3 ESCC cell lines. […]

[2] = tested on: KYSE410; test: Oligonucleotide microarray: genes up-regulated after 5Aza-dC ± TSA treatment; settings: at least 3.0 fold increase
Procedure: as §1, §2
(§3) Treatment of cells with the demethylating agent 5aza-dC (1 μM or 5 μM) for 3 to 5 days, and with or without the histone deacetylase inhibitor, TSA (300 nM; last 24 hours), was used to reactivate genes epigenetically silenced in 3 ESCC cell lines. […] The number of candidate genes was further diminished by comparing expression patterns (see world wide web, at URL “cgap.nci.nih.gov”) in normal esophagus and carcinoma tissue samples (eliminating those genes not expressed in normal tissue), and excluding unknown genes.

[3] = tested on: KYSE520; test: as above; settings: at least 3.0 fold increase
Procedure: as §1, §2, §3

[4] = tested on: KYSE30; test: as above; settings: at least 3.0 fold increase
Procedure: as §1, §2, §3

[5] = tested on: HNSCC #011 cell line; test: Microarray screen for reactivated genes in HNSCC cells; settings: 10 μM 5Aza-dC
Procedure: as §1, §2
HNSCC cells were incubated with 10 μM 5Aza-dC or with 0.1 μM 5Aza-dC and 300 nM TSA and screened as described in Example 1.

With `Nc1ncn([C@H]2C[C@H](O)[C@@H](CO)O2)c(=O)n1` [5Aza-dC, 5-aza-2′-deoxycytidine] the “Share of all up-regulated genes included in the treatment group” value ([1]; 5 μM 5Aza-dC treatment group, 3 ESCC cell lines) was > 80%, the “STAT3 expression after treatment” value ([1]; after 5Aza-dC treatments) was “did not change” and the “Genes upregulated by microarray analysis after treatments” value (“Genes upregulated” for short) ([2]; 1 μM 5Aza-dC) was 15 genes. The “Genes upregulated” value ([2]; 5 μM 5Aza-dC) was 334 genes, the “Genes upregulated” value ([3]; 1 μM 5Aza-dC) was 5 genes and the “Genes upregulated” value ([3]; 5 μM 5Aza-dC) was 149 genes. For the same compound, the “Genes upregulated” value ([4]; 1 μM 5Aza-dC) was 46 genes, the “Genes upregulated” value ([4]; 5 μM 5Aza-dC) was 242 genes and the “Reactivation of epigenetically silenced genes” value ([5]; HNSCC cells) was “Reactivation of epigenetically silenced genes was observed”. The “Fold increase in expression: H.sapiens p27 mRNA (X67325)” value ([5]; probe 425_at, HNSCC #011) was 5.8 fold, the “Fold increase in expression: tumor necrosis factor alpha inducible protein” value ([5]; probe 595_at, HNSCC #011) was 3.648 fold and the “Fold increase in expression: von Hippel-Lindau disease tumor suppressor mRNA” value ([5]; probe 1668_s_a, HNSCC #011) was 2.4375 fold. The “Fold increase in expression: insulin-like growth factor binding protein 6 (IGFBP6) gene (M62402)” value ([5]; probe 1736_at, HNSCC #011) was 2.2 fold, the “Fold increase in expression: Human Rad mRNA (L24564)” value ([5]; probe 1776_at, HNSCC #011) was 10.9 fold and the “Fold increase in expression: mRNA for TGF-betaIIR alpha” value ([5]; probe 1814_at, HNSCC #011) was 3.3 fold. The “Fold increase in expression: Human Bc12, p53 binding protein (U58334)” value ([5]; probe 1860_at, HNSCC #011) was 2.3 fold, the “Fold increase in expression: Human R-ras gene (M14949)” value ([5]; probe 1879_at, HNSCC #011) was 3.7 fold and the “Fold increase in expression: Human excision repair protein (ERCC1) mRNA” value ([5]; probe 1902_at, HNSCC #011) was 5.562 fold. For the same compound, the “Fold increase in expression: Human wild-type p53 activated fragment-1 (WAF1) mRNA (U03106)” value ([5]; probe 2031_s_a, HNSCC #011) was 2.9 fold, the “Fold increase in expression: breast cancer putative transcription factor (ZABC1) gene (AF041259)” value ([5]; probe 32034_at, HNSCC #011) was 3.1 fold and the “Fold increase in expression: DR4 homolog; TRAIL receptor 2” value ([5]; probe 34892_at, HNSCC #011) was 2.4292 fold. The “Fold increase in expression: DOC-1 related protein” value ([5]; probe 35151_at, HNSCC #011) was 2.4474 fold, the “Fold increase in expression: Mothers against dpp (Mad) gene (DPC4 gene), U10328” value ([5]; probe 36953_at, HNSCC #011) was 3.5132 fold and the “Fold increase in expression: TGFb inducible early protein and early growth response protein alpha genes (AF050110)” value ([5]; probe 38374_at, HNSCC #011) was 2.3 fold. The “Fold increase in expression: insulin-like growth factor binding protein 4 (IGFBP4) gene (U20982)” value ([5]; probe 39781_at, HNSCC #011) was 3.7 fold.

Source: patent US7781161B2, “Genomic screen for epigenetically silenced tumor suppressor genes” (The Johns Hopkins University School of Medicine, priority 2002, dated 2010)
